Assay results reported in patent publication EP4717694A1, “PYRAZOLFORMYL PIPERAZINONE COMPOUND, PHARMACEUTICAL COMPOSITION AND USE THEREOF” (Iregene Therapeutics Co., Ltd., priority 2023, dated 2024).

What was measured:
glioma U251 cells = assay: Treatment of glioma cells, qPCR transcriptional analysis (CASP3) and cytotoxicity versus LY2157299; type: cell-based
Description: In this example, compound II-1 and the reference compound LY2157299 were used to treat glioma U251 cells. Samples were collected at 12 hours and 72 hours posttreatment. Total RNA was extracted using the Rneasy Mini or Micro Kit (QIAGEN), and […] of RNA was reverse-transcribed into cDNA using the SuperScript III First-Strand Synthesis System (Invitrogen). Quantitative PCR was performed using SYBR Premix Ex Taq (TaKaRa) on a Thermal Cycler Dice Real-Time System (TaKaRa), with beta-Actin serving as an internal control. All data were analyzed using the delta-Ct method. Each experiment was performed in triplicate, and variance analysis was conducted. […] Table 3. Primers for transcriptional analysis of cells treated with compound II-1

BMPR1B kinase = BMPR1B kinase (Homo sapiens, UniProt O00238); assay: Kinase activity screening (330 kinases, HTRF or ADP-Glo); type: biochemical; conditions: screen of 330 kinases; II-1 2.5 mM, 25 nL in DMSO added to 2.5 µL kinase; Figure 1A
BMPR1B kinase, sequence (O00238 14-502): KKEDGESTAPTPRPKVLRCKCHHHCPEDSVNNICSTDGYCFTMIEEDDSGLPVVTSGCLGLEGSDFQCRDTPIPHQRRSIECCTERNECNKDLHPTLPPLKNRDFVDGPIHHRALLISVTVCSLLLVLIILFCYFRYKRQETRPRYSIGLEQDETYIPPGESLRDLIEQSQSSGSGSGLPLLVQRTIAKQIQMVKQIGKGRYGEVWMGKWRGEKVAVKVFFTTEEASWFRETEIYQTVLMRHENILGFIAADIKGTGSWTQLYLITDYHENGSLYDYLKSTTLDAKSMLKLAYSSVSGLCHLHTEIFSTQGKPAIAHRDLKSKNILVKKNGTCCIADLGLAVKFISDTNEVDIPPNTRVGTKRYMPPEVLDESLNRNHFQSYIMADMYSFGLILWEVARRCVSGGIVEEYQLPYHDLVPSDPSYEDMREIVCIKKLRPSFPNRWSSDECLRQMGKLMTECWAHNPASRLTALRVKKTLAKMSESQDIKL
Description: A total of 330 kinase candidates (15-50 nM, 2.5 µL) were mixed with compound II-1 (2.5 mM, 25 nL, prepared in DMSO) and incubated at 25 °C for 10 minutes. Then, a mixture of kinase peptide substrate (0.2 mg/mL; supplier: GenScript) and ATP (10-60 µM; supplier: Promega; product number: V915B) was added (total 2.5 µL, prepared in assay buffer), and the reaction was carried out at 25 °C for 60-120 minutes. Finally, the reaction products were quantified using HTRF1 or ADP-Glo2 methods. During the kinase activity assay, the consumption of each substrate was kept below 10%, and each kinase assay was performed in duplicate.

HEK293 = assay: CCK-8 cell viability assay; type: cell-based
Description: (§1) Tumor cells OVCAR3 (ovarian cancer), HeLa ([…]), U251 (glioma), H9 cells, and non-tumor HEK293 cells were cultured in DMEM/F12 medium supplemented with 10% FBS and 1% P/S. When cells reached 70% confluency, they were digested with 0.25% Trypsin at 37°C for 2-3 minutes, and digestion was stopped with DMEM/F12 medium. Cell suspensions were collected in 15 mL centrifuge tubes, centrifuged at 1000 rpm for 5 minutes, the supernatant was discarded, and cells were resuspended in DMEM/F12 medium with 10% FBS and 1% P/S. Cells were counted using a hemocytometer, and based on the counts, they were resuspended to the desired concentration. Tumor cells were seeded in 96-well plates at 1×10^4 cells per well, 100 µL per well. From day 1 to day 7 after seeding, cells were treated with compound II-1 at 0 µM, 10 µM, 30 µM, and 50 µM (the pyrazolecarbonyl piperazinone compounds were diluted to 10 µM, 30 µM, and 50 µM with DMEM + 10% FBS). Each concentration was tested in triplicate wells.
(§2) Cell viability on days 1, 3, 5, and 7 was determined using the CCK-8 cell proliferation/cytotoxicity assay kit (Vazyme, A311-02) by measuring absorbance at OD450 nm, with wells containing only medium and CCK-8 solution as blank controls. Each concentration was measured in triplicate.
(§3) Calculation of cell survival rate: For the same cell type at the same time point, the absorbance of cells not treated with compound II-1 was set as 100% baseline. For cells treated with different concentrations, the absorbance was compared with the control group (CK) to calculate the relative proportion. For example, the survival rate of H9 cells on day 4 treated with 30 µM of the small molecule compound was calculated as follows: [OD(D4)30μMiPS]/[OD(D4)0μMH9] × 100% [formula] Table 2. Cell survival rates of various cell types after treatment with different concentrations of compound II-1 measured by CCK-8 assay

U251 = assay: CCK-8 cell viability assay; type: cell-based
Description: as §1, §2, §3

Hela = assay: CCK-8 cell viability assay; type: cell-based
Description: as §1, §2, §3

H9 = assay: CCK-8 cell viability assay; type: cell-based
Description: as §1, §2, §3

SMILES: O=C1CN(C(=O)c2n[nH]c3c2CCC3)[C@H]2CCCC[C@@H]2N1 [II-1, (4aS,8aS)-4-(1,4,5,6-tetrahydrocyclopenta[c]pyrazole-3-carbonyl)octahydroquinoxalin-2(1H)-one]
- cells remaining in the wells compared to LY2157299 (glioma U251 cells; after 72 hours of treatment, Figure 3): fewer cells remained
- apoptosis compared to LY2157299 (glioma U251 cells; same concentration as LY2157299, Figure 3): higher apoptosis
- inhibitory activity against BMPR1B kinase (BMPR1B kinase): significant inhibitory activity
- Cell survival rate (HEK293; HEK293, II-1 10 µM, Day 1 Treatment): 96.09%
- Cell survival rate (HEK293; HEK293, II-1 10 µM, Day 3 Treatment): 96.67%
- Cell survival rate (HEK293; HEK293, II-1 10 µM, Day 5 Treatment): 98.80%
- Cell survival rate (HEK293; HEK293, II-1 10 µM, Day 7 Treatment): 99.24%
- Cell survival rate (HEK293; HEK293, II-1 30 µM, Day 1 Treatment): 93.69%
- Cell survival rate (HEK293; HEK293, II-1 30 µM, Day 3 Treatment): 94.14%
- Cell survival rate (HEK293; HEK293, II-1 30 µM, Day 5 Treatment): 94.39%
- Cell survival rate (HEK293; HEK293, II-1 30 µM, Day 7 Treatment): 94.97%
- Cell survival rate (HEK293; HEK293, II-1 50 µM, Day 1 Treatment): 80.80%
- Cell survival rate (HEK293; HEK293, II-1 50 µM, Day 3 Treatment): 90.72%
- Cell survival rate (HEK293; HEK293, II-1 50 µM, Day 5 Treatment): 92.46%
- Cell survival rate (HEK293; HEK293, II-1 50 µM, Day 7 Treatment): 93.56%
- cell viability, course with time and concentration (HEK293; non-tumor HEK293, II-1 10-50 µM, days 1-7): did not show significant changes
- Cell survival rate (U251; U251, II-1 10 µM, Day 1 Treatment): 100.75%
- Cell survival rate (U251; U251, II-1 10 µM, Day 3 Treatment): 98.96%
- Cell survival rate (U251; U251, II-1 10 µM, Day 5 Treatment): 95.19%
- Cell survival rate (U251; U251, II-1 10 µM, Day 7 Treatment): 94.74%
- Cell survival rate (U251; U251, II-1 30 µM, Day 1 Treatment): 99.49%
- Cell survival rate (U251; U251, II-1 30 µM, Day 3 Treatment): 87.01%
- Cell survival rate (U251; U251, II-1 30 µM, Day 5 Treatment): 79.39%
- Cell survival rate (U251; U251, II-1 30 µM, Day 7 Treatment): 74.00%
- Cell survival rate (U251; U251, II-1 50 µM, Day 1 Treatment): 98.61%
- Cell survival rate (U251; U251, II-1 50 µM, Day 3 Treatment): 85.27%
- Cell survival rate (U251; U251, II-1 50 µM, Day 5 Treatment): 70.43%
- Cell survival rate (U251; U251, II-1 50 µM, Day 7 Treatment): 63.89%
- cell viability, course with time and concentration (U251; U251, II-1 10-50 µM, days 1-7): gradual decrease in cell viability over time
- Cell survival rate (Hela; II-1 10 µM, Day 1 Treatment): 103.32%
- Cell survival rate (Hela; II-1 10 µM, Day 3 Treatment): 98.58%
- Cell survival rate (Hela; II-1 10 µM, Day 5 Treatment): 97.35%
- Cell survival rate (Hela; II-1 10 µM, Day 7 Treatment): 97.27%
- Cell survival rate (Hela; II-1 30 µM, Day 1 Treatment): 100.64%
- Cell survival rate (Hela; II-1 30 µM, Day 3 Treatment): 93.45%
- Cell survival rate (Hela; II-1 30 µM, Day 5 Treatment): 90.71%
- Cell survival rate (Hela; II-1 30 µM, Day 7 Treatment): 85.04%
- Cell survival rate (Hela; II-1 50 µM, Day 1 Treatment): 88.66%
- Cell survival rate (Hela; II-1 50 µM, Day 3 Treatment): 81.80%
- Cell survival rate (Hela; II-1 50 µM, Day 5 Treatment): 80.31%
- Cell survival rate (Hela; II-1 50 µM, Day 7 Treatment): 75.83%
- cell viability, course with time and concentration (Hela; II-1 10-50 µM, days 1-7): gradual decrease in cell viability over time
- Cell survival rate (H9; H9, II-1 10 µM, Day 1 Treatment): 90.37%
- Cell survival rate (H9; H9, II-1 10 µM, Day 3 Treatment): 92.91%
- Cell survival rate (H9; H9, II-1 10 µM, Day 5 Treatment): 84.84%
- Cell survival rate (H9; H9, II-1 10 µM, Day 7 Treatment): 83.47%
- Cell survival rate (H9; H9, II-1 30 µM, Day 1 Treatment): 84.96%
- Cell survival rate (H9; H9, II-1 30 µM, Day 3 Treatment): 86.01%
- Cell survival rate (H9; H9, II-1 30 µM, Day 5 Treatment): 80.25%
- Cell survival rate (H9; H9, II-1 30 µM, Day 7 Treatment): 78.71%
- Cell survival rate (H9; H9, II-1 50 µM, Day 1 Treatment): 76.96%
- Cell survival rate (H9; H9, II-1 50 µM, Day 3 Treatment): 73.87%
- Cell survival rate (H9; H9, II-1 50 µM, Day 5 Treatment): 69.10%
- Cell survival rate (H9; H9, II-1 50 µM, Day 7 Treatment): 65.98%
- cell viability, course with time and concentration (H9; H9, II-1 10-50 µM, days 1-7): gradual decline in viability
